# In patent EP2257297B1, “COMPOUNDS FOR USE IN THE TREATMENT OF ACNE, SEBORRHOEA AND SEBHORROEIC DERMATITIS, OR FOR REDUCING SEBUM SECRETION” (priority 2008, dated 2009):
# Biological target: T1, human MC5R (Homo sapiens, UniProt P33032)
# T1 construct: purchased Perkin Elmer RBXMC5M400UA
# Test: Human MC5R radioligand binding assay ([125I] NDP-MSH displacement, hMC5R membranes)
# Conditions: hMC5R assay as in Example 102; compounds tested as trifluoroacetate or hydrochloride salts, or as free base
# Procedure, shortened: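 Bound ligand collected by filtration on PEI-soaked GF/A filters and counted. Data fitted to a single-site competition model with fixed Hill coefficient to give EC50.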
# T1 sequence (P33032 whole entry): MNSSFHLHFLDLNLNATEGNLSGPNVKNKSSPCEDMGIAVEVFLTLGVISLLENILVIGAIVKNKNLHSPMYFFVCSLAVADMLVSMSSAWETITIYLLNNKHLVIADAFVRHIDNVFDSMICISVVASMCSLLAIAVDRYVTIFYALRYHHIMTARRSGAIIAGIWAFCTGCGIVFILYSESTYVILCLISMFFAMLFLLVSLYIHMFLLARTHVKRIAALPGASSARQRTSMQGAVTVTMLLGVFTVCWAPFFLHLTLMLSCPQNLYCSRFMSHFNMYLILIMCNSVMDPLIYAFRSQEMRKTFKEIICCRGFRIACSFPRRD
row,SMILES,IC50
1,"CCC(CC)CN1CC[C@@H](CNC(=O)c2ccc(Cl)c(Cl)c2)N[C@@H](CCN2CCCCC2)C1=O [Compound 349, 3,4-dichloro-N-(((3S,5S)-1-(2-ethylbutyl)-2-oxo-3-(2-(piperidin-1-yl)ethyl)-1,4-diazepan-5-yl)methyl)benzamide]",< 0.1 µM
2,"CCC(CC)CN1CC[C@@H](CNC(=O)/C=C/c2ccc(Cl)cc2)N[C@@H](CN2CCCCC2)C1=O [Compound 355, (E)-3-(4-chlorophenyl)-N-(((3S,5S)-1-(2-ethylbutyl)-2-oxo-3-(piperidin-1-ylmethyl)-1,4-diazepan-5-yl)methyl)acrylamide]",< 1 µM
3,"N=C(N)NCCC[C@@H]1N[C@H](CNC(=O)c2cc(Cl)ccc2Cl)CCN(CC(c2ccccc2)c2ccccc2)C1=O [Compound 137, 2,5-dichloro-N-(((3S,5S)-1-(2,2-diphenylethyl)-3-(3-guanidinopropyl)-2-oxo-1,4-diazepan-5-yl)methyl)benzamide]",< 1 µM
4,"N=C(N)NCCC[C@@H]1N[C@H](CNC(=O)c2ccc(Br)cc2)CCN(CC(c2ccccc2)c2ccccc2)C1=O [Compound 164, 4-bromo-N-(((3S,5S)-1-(2,2-diphenylethyl)-3-(3-guanidinopropyl)-2-oxo-1,4-diazepan-5-yl)methyl)benzamide]",< 1 µM
5,"N=C(N)NCCC[C@@H]1N[C@H](CNC(=O)/C=C/c2cccc(Cl)c2)CCN(CC(c2ccccc2)c2ccccc2)C1=O [Compound 177, (E)-3-(3-chlorophenyl)-N-(((3S,5S)-1-(2,2-diphenylethyl)-3-(3-guanidinopropyl)-2-oxo-1,4-diazepan-5-yl)methyl)acrylamide]",< 0.1 µM
6,"Cc1c(C(=O)NC[C@@H]2CCN(CC(c3ccccc3)c3ccccc3)C(=O)[C@H](CCCNC(=N)N)N2)cnn1-c1ccccc1 [Compound 186, N-(((3S,5S)-1-(2,2-diphenylethyl)-3-(3-guanidinopropyl)-2-oxo-1,4-diazepan-5-yl)methyl)-5-methyl-1-phenyl-1H-pyrazole-4-carboxamide]",< 0.1 µM
7,"N=C(N)NCCC[C@@H]1N[C@H](CNC(=O)c2cc3ccccc3cn2)CCN(CC(c2ccccc2)c2ccccc2)C1=O [Compound 114, N-(((3S,5S)-1-(2,2-diphenylethyl)-3-(3-guanidinopropyl)-2-oxo-1,4-diazepan-5-yl)methyl)isoquinoline-3-carboxamide]",< 1 µM
8,"NCCC[C@@H]1N[C@H](CNC(=O)c2csc(-c3ccccc3)n2)CCN(CC(c2ccccc2)c2ccccc2)C1=O [Compound 242, N-(((3S,5S)-3-(3-aminopropyl)-1-(2,2-diphenylethyl)-2-oxo-1,4-diazepan-5-yl)methyl)-2-phenylthiazole-4-carboxamide]",< 1 µM
9,"COc1cc2ccccc2cc1C(=O)NC[C@@H]1CCN(CC(c2ccccc2)c2ccccc2)C(=O)[C@H](CCCNC(=N)N)N1 [Compound 163, N-(((3S,5S)-1-(2,2-diphenylethyl)-3-(3-guanidinopropyl)-2-oxo-1,4-diazepan-5-yl)methyl)-3-methoxy-2-naphthamide]",< 1 µM
10,"N=C(N)NCCC[C@@H]1N[C@H](CNC(=O)/C=C/c2ccccc2C(F)(F)F)CCN(CC(c2ccccc2)c2ccccc2)C1=O [Compound 172, (E)-N-(((3S,5S)-1-(2,2-diphenylethyl)-3-(3-guanidinopropyl)-2-oxo-1,4-diazepan-5-yl)methyl)-3-(2-(trifluoromethyl)phenyl)acrylamide]",< 1 µM
11,"NCCC[C@@H]1N[C@H](CNC(=O)/C=C/c2ccc(Br)cc2)CCN(CC(c2ccccc2)c2ccccc2)C1=O [Compound 260, (E)-N-(((3S,5S)-3-(3-aminopropyl)-1-(2,2-diphenylethyl)-2-oxo-1,4-diazepan-5-yl)methyl)-3-(4-bromophenyl)acrylamide]",< 0.1 µM
12,"N=C(N)NCCC[C@@H]1N[C@H](CNC(=O)[C@H]2COc3ccccc3O2)CCN(CC(c2ccccc2)c2ccccc2)C1=O [Compound 168, (R)-N-(((3S,5S)-1-(2,2-diphenylethyl)-3-(3-guanidinopropyl)-2-oxo-1,4-diazepan-5-yl)methyl)-2,3-dihydrobenzo[b][1,4]dioxine-2-carboxamide]",< 1 µM
13,"N=C(N)NCCC[C@@H]1N[C@H](CNC(=O)c2ccc(Cl)c(Cl)c2)CCN(CC(c2ccccc2)c2ccccc2)C1=O [Compound 152, 3,4-dichloro-N-(((3S,5S)-1-(2,2-diphenylethyl)-3-(3-guanidinopropyl)-2-oxo-1,4-diazepan-5-yl)methyl)benzamide]",< 0.1 µM
14,"NCC[C@@H]1N[C@H](CNC(=O)/C=C/c2ccc(F)cc2)CCN(CC(c2ccccc2)c2ccccc2)C1=O [Compound 276, (E)-N-(((3S,5S)-3-(2-aminoethyl)-1-(2,2-diphenylethyl)-2-oxo-1,4-diazepan-5-yl)methyl)-3-(4-fluorophenyl)acrylamide]",< 0.1 µM
15,"N=C(N)NCCC[C@@H]1N[C@H](CNC(=O)C23CC4CC(CC(C4)C2)C3)CCN(CC(c2ccccc2)c2ccccc2)C1=O [Compound 161, N-(((3S,5S)-1-(2,2-diphenylethyl)-3-(3-guanidinopropyl)-2-oxo-1,4-diazepan-5-yl)methyl)-adamantane-1-carboxamide]",< 10 µM
16,"N=C(N)NCCC[C@@H]1N[C@H](CNC(=O)/C=C/c2ccc(Cl)cc2Cl)CCN(CC(c2ccccc2)c2ccccc2)C1=O [Compound 160, (E)-3-(2,4-dichlorophenyl)-N-(((3S,5S)-1-(2,2-diphenylethyl)-3-(3-guanidino-propyl)-2-oxo-1,4-diazepan-5-yl)methyl)acrylamide]",< 0.1 µM

# Results, then the compound that gave them:
row,IC50,SMILES
1,< 1 µM,"CN1[C@H](CNC(=O)/C=C/c2ccc(F)cc2)CCN(CC(c2ccccc2)c2ccccc2)C(=O)[C@@H]1CCCN [Compound 258, (E)-N-(((3S,5S)-3-(3-aminopropyl)-1-(2,2-diphenylethyl)-4-methyl-2-oxo-1,4-diazepan-5-yl)methyl)-3-(4-fluorophenyl)acrylamide]"
2,< 0.1 µM,"Cc1ccc(/C=C/C(=O)NC[C@@H]2CCN(CC(c3ccccc3)c3ccccc3)C(=O)[C@H](CCN)N2)cc1 [Compound 277, (E)-N-(((3S,5S)-3-(2-aminoethyl)-1-(2,2-diphenylethyl)-2-oxo-1,4-diazepan-5-yl)methyl)-3-p-tolylacrylamide]"
3,< 10 µM,"CN(C[C@@H]1CCN(CC(c2ccccc2)c2ccccc2)C(=O)[C@H](CCCN)N1)C(=O)/C=C/c1ccc(F)cc1 [Compound 257, (E)-N-(((3S,5S)-3-(3-aminopropyl)-1-(2,2-diphenylethyl)-2-oxo-1,4-diazepan-5-yl)methyl)-3-(4-fluorophenyl)-N-methylacrylamide]"
4,< 10 µM,"CCC(CC)CN1CC[C@@H](CNC(=O)c2ccc(C)c(Cl)c2)N[C@@H](CCN)C1=O [Compound 354, N-(((3S,5S)-3-(2-aminoethyl)-1-(2-ethylbutyl)-2-oxo-1,4-diazepan-5-yl)methyl)-3-chloro-4-methylbenzamide]"
5,< 10 µM,"NCC[C@@H]1N[C@H](CCNC(=O)c2ccccc2)CCN(CC(c2ccccc2)c2ccccc2)C1=O [Compound 308, N-(2-((3S,5R)-1-(2,2-diphenylethyl)-2-oxo-3-(2-aminoethyl)-1,4-diazepan-5-yl)ethyl)benzamide]"
6,< 1 µM,"CC(C)NCC[C@@H]1N[C@H](CCNC(=O)c2ccc(Cl)c(Cl)c2)CCN(CC(c2ccccc2)c2ccccc2)C1=O [Compound 362, 3,4-dichloro-N-(2-((3S,5R)-1-(2,2-diphenylethyl)-3-(2-(isopropylamino)ethyl)-2-oxo-1,4-diazepan-5-yl)ethyl)benzamide]"
7,< 0.1 µM,"CCN(CC)CC[C@@H]1N[C@H](CNC(=O)/C=C/c2ccc(Cl)cc2)CCN(CC(c2ccccc2)c2ccccc2)C1=O [Compound 378, (E)-3-(4-chlorophenyl)-N-(((3S,5S)-3-(2-(diethylamino)ethyl)-1-(2,2-diphenylethyl)-2-oxo-1,4-diazepan-5-yl)methyl)acrylamide]"
8,< 0.1 µM,"N=C(N)NCCC[C@@H]1N[C@H](CNC(=O)/C=C/c2ccc(C(F)(F)F)cc2)CCN(CC(c2ccccc2)c2ccccc2)C1=O [Compound 200, (E)-N-(((3S,5S)-1-(2,2-diphenylethyl)-3-(3-guanidinopropyl)-2-oxo-1,4-diazepan-5-yl)methyl)-3-(4-(trifluoromethyl)phenyl)acrylamide]"
9,< 0.1 µM,"Cc1ccc(/C=C/C(=O)NC[C@@H]2CCN(CC(c3ccccc3)c3ccccc3)C(=O)[C@H](CCCN)N2)cc1 [Compound 219, (E)-N-(((3S,5S)-3-(3-aminopropyl)-1-(2,2-diphenylethyl)-2-oxo-1,4-diazepan-5-yl)methyl)-3-p-tolylacrylamide]"
10,< 0.01 µM,"O=C(/C=C/c1ccc(F)cc1)NC[C@@H]1CCN(CC(c2ccccc2)c2ccccc2)C(=O)[C@H](CCCNC2CCCCC2)N1 [Compound 231, (E)-N-(((3S,5S)-3-(3-(cyclohexylamino)propyl)-1-(2,2-diphenylethyl)-2-oxo-1,4-diazepan-5-yl)methyl)-3-(4-fluorophenyl)acrylamide]"
11,< 1 µM,"N=C(N)NCCC[C@@H]1N[C@H](CNC(=O)/C=C/c2cccc(O)c2)CCN(CC(c2ccccc2)c2ccccc2)C1=O [Compound 193, (E)-N-(((3S,5S)-1-(2,2-diphenylethyl)-3-(3-guanidinopropyl)-2-oxo-1,4-diazepan-5-yl)methyl)-3-(3-hydroxyphenyl)acrylamide]"
12,< 1 µM,"N=C(N)NCCC[C@@H]1N[C@H](CNC(=O)Cc2ccc3ccccc3c2)CCN(CC(c2ccccc2)c2ccccc2)C1=O [Compound 110, N-(((3S,5S)-1-(2,2-diphenylethyl)-3-(3-guanidinopropyl)-2-oxo-1,4-diazepan-5-yl)methyl)-2-(naphthalen-2-yl)acetamide]"
13,< 10 µM,"CCC(CC)CN1CC[C@@H](CNC(=O)c2ccc(Cl)c(C)c2)N[C@@H](CCN)C1=O [Compound 352, N-(((3S,5S)-3-(2-aminoethyl)-1-(2-ethylbutyl)-2-oxo-1,4-diazepan-5-yl)methyl)-4-chloro-3-methylbenzamide]"
14,< 0.1 µM,"O=C(NC[C@@H]1CCN(CC(c2ccccc2)c2ccccc2)C(=O)[C@H](CCCN2CCCCC2)N1)c1ccc(Cl)c(Cl)c1 [Compound 271, 3,4-dichloro-N-(((3S,5S)-1-(2,2-diphenylethyl)-2-oxo-3-(3-(piperidin-1-yl)propyl)-1,4-diazepan-5-yl)methyl)benzamide]"
